Results: the NIST ThermoML archive (doi:10.1016/j.jct.2014.03.022)

Assay: xn = mol fraction of the nth substance listed
Conditions: for surface tension liquid-gas: Wilhelmy plate method; for viscosity: 101.3 kPa, Liquid, Concentric cylinders viscometry

CCCCCCCCCCO [decan-1-ol] + CN(C)C=O
Conditions	surface tension liquid-gas, 298.15 K [mN/m]	surface tension liquid-gas, 303.15 K [mN/m]	surface tension liquid-gas, 308.15 K [mN/m]	surface tension liquid-gas, 313.15 K [mN/m]	viscosity, 298.15 K [mPa·s]	viscosity, 303.15 K [mPa·s]	viscosity, 308.15 K [mPa·s]	viscosity, 313.15 K [mPa·s]
x2 = 0	28.35	27.29	26.23	25.17	11.83	9.754	8.135	6.842
x2 = 0.2361	28.83	27.74	26.67	25.61	4.984	3.776	2.992	2.357
x2 = 0.4193	29.21	28.08	26.99	25.92	2.622	1.816	1.359	0.9811
x2 = 0.5688	29.6	28.43	27.31	26.23	1.623	1.092	0.7935	0.5801
x2 = 0.6724	30.14	28.95	27.82	26.74	1.238	0.8423	0.6257	0.47
x2 = 0.7496	30.78	29.6	28.46	27.38	1.03	0.7268	0.5631	0.443
x2 = 0.8185	31.61	30.43	29.3	28.23	0.9299	0.7011	0.5754	0.479
x2 = 0.8748	32.48	31.32	30.2	29.15	0.8732	0.7131	0.6216	0.5385
x2 = 0.923	33.41	32.27	31.15	30.12	0.8501	0.7459	0.6802	0.6027
x2 = 0.9632	34.3	33.18	32.07	31.05	0.8317	0.7627	0.7103	0.6468
